We go through three molecules from publication PMC6150007 (Molecules : A Journal of Synthetic Chemistry and Natural …, 2017).

The nature of data set [1]: Chemical stability in aqueous buffer (HPLC). The settings on record: 50 µM, room temperature. Type of data set: physicochemical. The procedure:
(§1) The effluent was monitored at 276 nm. […] The effluent was monitored at 280 nm.
The stock solution was immediately diluted to 50 µM and the resulting solution was analysed by the HPLC method described above. The first injection served as reference point, after which the same solution was again injected at 1 h, 3 h, 6 h, 9 h and 11 h. During this time, the test solution remained at room temperature in the autosampler tray. The stabilities of the prodrug in the selected buffer phases are reported as the percentage mean ± standard deviation of the first injection, which served as reference point.

The nature of data set [2]: Plasma stability, rat plasma. Type of data set: in vitro ADME. To be noted: 37 °C, approx. 200 µM spiked. On the procedure:
as §1
(§2) Plasma was collected in 0.5 mL MiniCollect® heparin plasma tubes (Greiner Bio-One, Kremsmünster, Austria) and centrifuged at 5500 rpm. Liver and brain tissue were collected, placed on ice and rinsed with 0.25 M sucrose dissolved in water. Sucrose solution was added to the tissue at a ratio 1:3 (w/v), the tissues were cut into small pieces using scissors and homogenised by 2 passes (60 s each) using a Potter–Elvehjem homogeniser (1200 rev/min, Potter–Elvehjem, Kennesaw, GA, USA). Care was taken to cool the homogeniser in ice during this procedure. […] The stock solution was immediately diluted to approximately 200 µM into plasma or tissue homogenate (preheated to 37 °C) and the resulting mixtures were analysed by the HPLC method described above. For this purpose, 100 µL of the spiked plasma or tissue homogenate was added to 300 µL acetonitrile (containing formic acid 1%) in a Phree tube. The tube was vortexed for 2 min and filtered under vacuum (9–10 mmHg). The collected solvent was evaporated under a stream of air, and the residue was redissolved in 100 µL methanol. A volume of 300 µL water was added and 20 µL of the resulting solution was analysed by the HPLC system. […] The concentration of lazabemide was also determined.

Data set [3] in a line: Ionisation constant (pKa) by potentiometric titration. It is filed as physicochemical. On the procedure: The prodrug was titrated in 0.1 mL increments and the pH was recorded after each addition. A total of 1 mL KOH was added to fully neutralise the primary amine group of the prodrug. The results were subsequently tabulated according to the method described in literature, and the pKa value was calculated.

The nature of a further data set: MTT cell viability assay. It is filed as cell-based, human. The settings on record: human, HeLa cells, read-out: percentage of viable cells remaining. The source says:
(§3) For this purpose, the MTT cell viability assay was used. The MTT assay is a standard cell viability assay, measuring mitochondrial activity in live (metabolically viable) cells. Metabolically active mitochondria in viable cells have the ability to reduce MTT to coloured formazan crystals that can be quantitated spectrophotometrically. The presence of a toxic agent will reduce cell viability and thus limit the reduction of MTT to the formazan product. For this study, HeLa cells were selected. This selection was based on the high growth rate of HeLa cells and on the observation that these cells are frequently used to measure cell viability in the presence of toxic agents.
(§4) HeLa cells were maintained in 250 cm^2 flasks in 30 mL Dulbecco’s Modified Eagle Medium (DMEM) containing 10% fetal bovine serum, 1% penicillin (10,000 units/mL)/streptomycin (10 mg/mL) and 0.1% fungizone (250 µg/mL). The cells were incubated at 37 °C in an atmosphere of 10% CO2. Once confluent, the cells were seeded at 500,000 cells/well in 24-well plates and incubated for 24 h. A volume of 3 mL trypsin/EDTA (0.25%/0.02%) was used to facilitate cell detachment and the counting of cells was done with a haemocytometer. The wells were subsequently rinsed with 0.5 mL DMEM containing no fetal bovine serum. A volume of 0.99 mL DMEM (containing no fetal bovine serum) was subsequently added to each well followed by 10 µL of the test drug. Stock solutions of the test drugs were prepared in deionised water and sterilised via a 0.22 µm syringe filter. In each 24-well plate, wells were reserved as positive controls (100% cell death via lyses with 0.3% formic acid) and negative controls (0% cell death as a result of no treatment). The well-plates were incubated for a further 24 h after which the culture medium was aspirated from the cells. The wells were washed twice with 0.5 mL/well phosphate-buffered saline (PBS) and 200 µL of 0.05% MTT reagent (3-(4,5-dimethylthiazol-2-yl)-2,5-diphenyltetrazolium bromide) in PBS was added to each well. The well-plates were incubated at 37 °C for 2 h in the dark, the MTT reagent was aspirated from the wells and 250 µL isopropanol was added to each well. The well-plates were then incubated at room temperature for 5 min to dissolve the purple formazan crystals, whereafter 100 µL of the isopropanol phase was transferred to a 96-well plate. The absorbance of each isopropanol phase was measured spectrophotometrically at 560 nm.
On the technique in general: Tetrazolium assays rely on reduction of a dye to a coloured formazan, in cell work by metabolically active cells.

The next data set deals with HeLa cells. In words: MTT cell viability assay. It is filed as cell-based, human. The settings on record: 100 µM, 24 h.
Description: as §3, §4

Another data set is described as follows: in vitro. The settings on record: PAMPA.
The nature of data set [4]: Solubility in water and potassium phosphate buffer. To be noted: thermodynamic from solid, 37 °C. It is filed as physicochemical. On the procedure:
This yielded a theoretical concentration of 6.0 mg/mL. The tubes were agitated for 24 h in a water bath at 37 °C and were subsequently centrifuged at 16,000× g for 10 min. The samples were filtered through a 0.22 µm syringe filter and diluted 150-fold into water or potassium phosphate buffer (100 mM, pH 7.4). The absorbances of the resulting solutions were recorded at a wavelength of maximal absorbance of 276 nm.

The nature of data set [5]: Plasma stability, human plasma. Type of data set: in vitro ADME. To be noted: 37 °C, approx. 200 µM spiked. The procedure: as §1, §2
Data set [6] has as its system striatal monoamines and metabolites. To be noted: for concentration reached in the brain: mouse, in vivo.
Description: The delivery of dopamine by the prodrug was thus indirectly assessed by measuring dopamine levels in the striatal tissue of mice following treatment with the prodrug. For this purpose, the measurement of dopamine metabolites and other monoamine neurotransmitters and their metabolites was also included. […] Another four groups (n = 3 mice/group) were treated in the same manner by intraperitoneal injection. The animals were sacrificed 60 min after treatment, the striata were dissected and the concentrations of dopamine, 3,4-dihydroxyphenylacetic acid (DOPAC), homovanillic acid (HVA), noradrenaline, serotonin and 5-hydroxyindoleacetic acid (HIAA) were measured [40].
Male C57BL/6 mice were weighed and allocated into 4 groups of 3 mice each. […] A second set of 4 groups (n = 3) were treated in the same manner by intraperitoneal injection. All solutions were prepared in sterile saline and administered at volumes of 0.1 mL for oral gavage and 0.2 mL for intraperitoneal injection. The animals were euthanised 60 min after treatment and the striata were dissected and stored at −80 °C until the day of the experiment. The concentrations of dopamine, 3,4-dihydroxyphenylacetic acid (DOPAC), homovanillic acid (HVA), noradrenaline, serotonin and 5-hydroxyindoleacetic acid (5-HIAA) were determined according to the published protocol, and are reported as mean ± standard deviation of each group [40]. Prism version 5 (GraphPad Software, San Diego, CA, USA) was used for the statistical analyses and for the preparation of graphical presentations. Data were analysed by one-way analysis of variance (ANOVA) across all groups, and were subsequently subjected to the Dunnett’s post-hoc test to determine statistical differences between the means. A p-value of <0.05 indicates a statistically significant difference.
Data set [7] in a line: Tissue stability, rat liver homogenate. It is filed as in vitro ADME. To be noted: 37 °C. The procedure: as §1, §2
Data set [8] in a line: Shake-flask logD determination (n-octanol/buffer). To be noted: n-octanol/potassium phosphate buffer 100 mM.
Description: (§5) n-Octanol (analytical reagent from Sigma-Aldrich) and the appropriate buffer were mutually saturated in a separatory funnel. Potassium phosphate buffer (100 mM) at pH 6.4, 7.4 and 7.8 served as the aqueous buffer phases. […] The vessels were shaken by hand for 5 min and centrifuged at 4000× g for 10 min. […] The logD value at a given pH is equal to the logarithm of the octanol/buffer partition coefficients (D). […] LogD values are given as mean ± standard deviation of triplicate determinations. Using the same protocol as above, the logD values at pH 6.4, 7.4 and 7.8 for lazabemide were also determined.
A further data set concerns brain MAO-B. The settings on record: cited from earlier work.
For data set [9] the following is noted: PAMPA, 5 h, 200 µM. For orientation: In PAMPA a lipid-coated filter parts donor from acceptor wells.
Description: (§6) The HPLC system consisted of an Agilent 1200 series HPLC system with a binary gradient pump, autosampler and vacuum degasser coupled to an Agilent 1200 series variable-wavelength detector (Santa Clara, CA, USA). The analyses were carried out with Venusil XBP C18 column (4.60 mm × 150 mm, 5 μm, Bonna-Agela Technologies, Wilmington, DE, USA). […] The effluent was monitored at 276 nm. […] The effluent was monitored at 280 nm. A volume of 20 µL of the samples was injected into the HPLC system.
(§7) The precoated parallel artificial membrane permeability assay (PAMPA) plate system was obtained from BD Biosciences. Prior to use, the pre-coated PAMPA plates were warmed to room temperature for at least 30 min. Once warmed to room temperature, the plate system was used within 24 h. A volume of 300 µL of the test compound solution in potassium phosphate buffer (100 mM, pH 6.4, 7.4 and 7.8) or in sodium acetate buffer (50 mM, pH 3.7, 4.7 and 5.7) was added per well in the receiver/donor plate (bottom). The final concentration of the test compounds was 200 µM in each well. A volume of 200 µL of potassium phosphate buffer (100 mM, pH 6.4, 7.4 and 7.8) or sodium acetate buffer (50 mM, pH 3.7, 4.7 and 5.7) was then added per well to the filter/acceptor plate (top). The filter plate was placed on the receiver plate by slowly lowering the precoated PAMPA plate until it was seated on the receiver plate. The assembly was incubated at room temperature for 5 h. The precoated PAMPA plate and the receiver plate were separated. The compound concentrations were determined using the HPLC system described above. The permeability values are given as mean ± standard deviation of triplicate determinations [38].
For data set [10] the following is noted: cited from earlier work.
On the set-up of data set [11]: method as in PMID 20646792. The settings on record: after oral administration of L-dopa prodrugs to rats; cited from earlier work.
Details of data set [12]: method as in PMID 19930170. To be noted: mice; oral administration of L-dopa and carbidopa; cited from earlier work.

Molecules are shown by their SMILES. In brackets after ≈: the same amount, converted by molar mass. Read-outs that look alike come from different tables or passages of the source.

Description for in vitro: as §6, §7
Description for physchem: as §5

For orientation: pKa means the negative logarithm of the acid dissociation constant. Broadly, the Papp is the rate of passage across a membrane or cell layer, normalised by area and donor concentration. Lower therefore signals poor permeation. As a reminder, the solubility is the concentration that dissolves in the medium under given conditions. For orientation: logD means lipophilicity at a set pH, counting ionised and neutral species. As to `N[C@@H](Cc1ccc(O)c(O)c1)C(=O)NCCNC(=O)c1ccc(Cl)cn1` [L-dopa–lazabemide prodrug], the “chemical stability in aqueous buffer” value in [1] (pH 3.7–7.4, up to 11 h) is recorded as “stable”. The prodrug concentration remaining in [1] (pH 7.8, 11 h, relative to first injection) was 90.3%; in data set [2] (17 h), 70.5 µM; in [5] (17 h) it was 64 to 68 µM. For the same molecule, the stability in plasma result in [2] (up to 8 h) was “relatively stable”; in data set [5] (up to 8 h), “stable”. In addition, the pKa in [3] (amine group, titration with KOH in water) worked out at 7.25 ± 0.16. The “fraction existing as neutral uncharged species” value in [3] (pH 5.5) is given as 1–2%; in data set [3] (pH 7.4) it was “approximately 59%”. The viability at 24 h, 1 µM in “MTT cell viability assay” came to 112 ± 12%. Further, the viability at 24 h, 10 µM in the data set “MTT cell viability assay” stood at 52.1 ± 14%. Also, in “MTT cell viability assay”, the viability at 24 h, 100 µM was found to be 35%. Moreover, the “percentage of viable cells remaining” value in the data set on HeLa cells was found to be 34.9 ± 7.94%. The apparent permeability (Papp) at 5 h, 200 µM in the data set “in vitro” (pH 3.7) was 0.00955 ×10⁻⁶ cm/s; in the data set “in vitro” (pH 4.7) it was 0.0155 ×10⁻⁶ cm/s; in “in vitro” (pH 5.7), 0.0195 ×10⁻⁶ cm/s; in “in vitro” (pH 6.4), 0.0195 ×10⁻⁶ cm/s; in “in vitro” (pH 7.4) it was 0.0295 ×10⁻⁶ cm/s; in the data set “in vitro” (pH 7.8), 0.0468 ×10⁻⁶ cm/s. In addition, the solubility at 24 h in data set [4] (aqueous buffer, potassium phosphate buffer pH 7.4, 6000 μg/mL theoretical, 24 h, read-out: Solubility, Amount Measured) is 6140 ± 730 µg/mL (≈ 16.2 mM); in data set [4] (water, 6000 μg/mL theoretical, 24 h, read-out: Solubility, Amount Measured) it was 6280 ± 747 µg/mL (≈ 16.6 mM); in data set [4] (water and potassium phosphate buffer, aqueous buffer, water and buffer pH 7.4, read-out: minimum solubility) it was no less than 6000 µg/mL. For the same molecule, the “striatal DOPAC levels” value in [6] (63.5 µmol/kg intraperitoneal, 60 min, vs saline) is listed as “significant reduction”. Also, in [6] (63.5 µmol/kg oral gavage or ip, 60 min), the “striatal serotonin and 5-HIAA levels” value is recorded as “not altered”. For the same molecule, the striatal dopamine levels result in data set [6] (63.5 µmol/kg oral gavage or ip, 60 min, vs saline) is listed as “does not enhance”. Besides, the “concentration reached in the brain” value in data set [6] is recorded as “too low to be reliably detected”. The half-life at 200 µM in [7] (approximate, read-out: t½) was roughly 1 h. For the same molecule, the prodrug remaining in data set [7] (4 h incubation) turned out to be 37%. Further, the logD is 0.199 ± 0.002 in [8] (n-octanol/potassium phosphate buffer, pH 7.4, LogD, pH 7.4); 0.319 ± 0.003 in [8] (n-octanol/potassium phosphate buffer, pH 7.8, LogD, pH 7.8); less than 0 in [8] (pH 6.4); “–4.58 ± 0.002” in data set [8] (pH 6.4, listed as Prodrug).

For the molecule `NCCNC(=O)c1ccc(Cl)cn1` [Lazabemide], the logD in “physchem” (pH 6.4, LogD) was -1.18; in the data set “physchem” (pH 7.4, LogD), -0.68; in “physchem” (pH 7.8, LogD) it was -0.63. Besides, the Papp at 5 h, 200 µM in the data set “in vitro” (pH 3.7) is 0.0427 ×10⁻⁶ cm/s; in “in vitro” (pH 4.7), 0.0871 ×10⁻⁶ cm/s; in “in vitro” (pH 5.7), 0.148 ×10⁻⁶ cm/s; in the data set “in vitro” (pH 6.4), 0.355 ×10⁻⁶ cm/s; in “in vitro” (pH 7.4), 1.62 ×10⁻⁶ cm/s; in the data set “in vitro” (pH 7.8), 2.14 ×10⁻⁶ cm/s. In addition, the “time for enzyme activity to return to baseline after drug discontinuation” value with brain MAO-B (MAO-B) was no more than 36 h. In addition, the “inhibition of brain MAO-B” value in the data set on brain MAO-B (at least 0.4 mg/kg every 12 h, patients with early Parkinson’s disease) is listed as greater than 90%. For the same molecule, the “concentration reached in the brain” value in data set [6] is on record as “too low to be reliably detected”.

Take `N[C@@H](Cc1ccc(O)c(O)c1)C(=O)O` [L-Dopa]: the logPe result in data set [9] is “smaller than −7.99”. The half-life entry in [10] is “approximately 90 min”. In addition, the “fraction of the administered oral dose reaching the brain unchanged” value in data set [10] (oral, estimated) was “less than 1%”. For the same molecule, in the data set “MTT cell viability assay”, the viability at 24 h, 1 µM stood at 102 ± 4.19%. In addition, the viability at 24 h, 10 µM in the data set “MTT cell viability assay” came to 105 ± 5.24%. Also, the viability at 24 h, 100 µM in the data set “MTT cell viability assay” came to 79%. Also, in the data set on HeLa cells, the “percentage of viable cells remaining” value came out at 79.3 ± 13.0%. Moreover, the “plasma half-life of L-dopa” value in data set [11] was 0.85 to 1.62 h. Also, the “time to peak plasma levels” value in data set [12] is 30 to 60 min. Moreover, the Papp at 5 h, 200 µM in the data set “in vitro” (pH 3.7) was 0.0102 ×10⁻⁶ cm/s; in “in vitro” (pH 4.7) it was 0.00891 ×10⁻⁶ cm/s; in “in vitro” (pH 5.7), 0.00603 ×10⁻⁶ cm/s; in the data set “in vitro” (pH 6.4) it was 0.0024 ×10⁻⁶ cm/s; in “in vitro” (pH 7.4), 0.00676 ×10⁻⁶ cm/s; in the data set “in vitro” (pH 7.8) it was 0.00275 ×10⁻⁶ cm/s. For the same molecule, in data set [6], the “concentration reached in the brain” value is given as “too low to be reliably detected”.
